Experimental data as given in publication PMC11433937, “Privileged Scaffold Hybridization in the Design of Carbonic Anhydrase Inhibitors” (Molecules, 2024).

What was measured:
hCA II = hCA II (Homo sapiens, UniProt P00918); assay: Stopped-flow CA-catalyzed CO2 hydration inhibition assay
Description: (§1) A stopped-flow instrument was used, according to the previously reported methodology, to measure the CA (carbonic anhydrase)-catalyzed CO2 hydration/inhibition [46]. For 10 to 100 s, the CA-catalyzed CO2 hydration reaction’s initial rates were observed. […] Stock solutions of inhibitors (10 mM) and dilutions up to 0.01 nM were prepared in distilled-deionized water. Before the experiment started, the inhibitor and enzyme solutions were preincubated for 15 min at room temperature to allow for the formation of the enzyme/inhibitor (E/I) complex.

hCA I = hCA I (Homo sapiens, UniProt P00915); assay: as above
Description: as §1

hCA XII [1] = target: T1, hCA XII (Homo sapiens, UniProt O43570); assay: as above
Description: as §1

hCA IX [2] = target: T2, hCA IX (Homo sapiens, UniProt Q16790); assay: as above
Description: as §1

hCA XII [3] = target: T1, hCA XII; design: method as in PMID 27775452; conditions: previously synthesized compound; cited from earlier work
hCA IX [4] = target: T2, hCA IX; design: method as in PMID 27775452; conditions: previously synthesized compound; cited from earlier work

Chain of hCA I (P00915 whole entry): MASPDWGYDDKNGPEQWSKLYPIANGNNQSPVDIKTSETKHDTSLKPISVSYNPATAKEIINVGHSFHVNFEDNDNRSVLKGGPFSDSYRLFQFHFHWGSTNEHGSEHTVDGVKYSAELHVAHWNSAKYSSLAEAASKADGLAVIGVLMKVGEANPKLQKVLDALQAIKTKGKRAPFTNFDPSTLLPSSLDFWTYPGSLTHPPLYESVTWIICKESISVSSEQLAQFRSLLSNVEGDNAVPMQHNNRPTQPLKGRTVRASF
T1 sequence (O43570 30-289 limits assumed): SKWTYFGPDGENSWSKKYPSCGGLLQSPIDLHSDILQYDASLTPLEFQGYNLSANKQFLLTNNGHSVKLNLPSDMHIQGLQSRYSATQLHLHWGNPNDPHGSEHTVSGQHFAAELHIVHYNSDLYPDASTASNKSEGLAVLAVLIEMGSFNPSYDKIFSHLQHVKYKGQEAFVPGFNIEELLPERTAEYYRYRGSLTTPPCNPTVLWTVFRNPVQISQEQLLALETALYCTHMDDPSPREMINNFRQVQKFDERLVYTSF

| Compound | Ki (hCA II) [nM] | Ki (hCA I) [nM] | Ki (hCA XII [1]) [nM] | Ki (hCA IX [2]) [nM] | melting point [°C] | selectivity index SI hCA II/hCA XII (hCA XII [1]; ratio of Ki hCA II to Ki hCA XII) | selectivity index SI hCA II/hCA IX (hCA IX [2]; ratio of Ki hCA II to Ki hCA IX) | inhibitory activity against hCA XII (hCA XII [3]) | inhibitory activity against hCA IX (hCA IX [4]) |
| --- | --- | --- | --- | --- | --- | --- | --- | --- | --- |
| NS(=O)(=O)c1ccc(NN2C(=O)/C(=C3/C(=O)Nc4ccccc43)SC2=Nc2ccccc2)cc1 [5g, 4-((4-oxo-5-((Z)-2-oxoindolin-3-ylidene)-2-(phenylimino)thiazolidin-3-yl)amino)benzenesulfonamide] | 9.6 | 5280 | 16.8 | 2.5 | – | – | – | – | – |
| Cc1ccc2c(c1)/C(=C1/SC(=Nc3ccccc3)N(Nc3ccc(S(N)(=O)=O)cc3)C1=O)C(=O)N2 [5f, 4-((5-((Z)-5-methyl-2-oxoindolin-3-ylidene)-4-oxo-2-(phenylimino)thiazolidin-3-yl)amino)benzenesulfonamide] | 70.8 | > 10000 | 0.6 | 14.9 | 333.9 to 334.6 | 118 | 4.75 | – | – |
| NS(=O)(=O)c1ccc(NN2C(=O)/C(=C3/C(=O)Nc4ccc(F)cc43)SC2=Nc2ccccc2)cc1 [5c, 4-((5-((Z)-5-fluoro-2-oxoindolin-3-ylidene)-4-oxo-2-(phenylimino)thiazolidin-3-yl)amino)benzenesulfonamide] | 6.9 | 5880 | 21.8 | 23.1 | 297.5 to 299.8 | – | – | – | – |
| NS(=O)(=O)c1ccc(NN2C(=O)/C(=C3/C(=O)Nc4c(Br)cccc43)SC2=Nc2ccccc2)cc1 [5i, 4-((5-((Z)-7-bromo-2-oxoindolin-3-ylidene)-4-oxo-2-(phenylimino)thiazolidin-3-yl)amino)benzenesulfonamide] | 17.8 | 7690 | 94 | 50.3 | 344.9 to 346 | – | – | – | – |
| NS(=O)(=O)c1ccc(NN2C(=O)/C(=C3/C(=O)Nc4ccc(Cl)cc43)SC2=Nc2ccccc2)cc1 [5a, 4-((5-((Z)-5-chloro-2-oxoindolin-3-ylidene)-4-oxo-2-(phenylimino)thiazolidin-3-yl)amino)benzenesulfonamide] | 246 | 4590 | 61.1 | 99.4 | 314.2 to 316.1 | – | – | – | – |
| CN1C(=O)/C(=C2/C(=O)Nc3c(F)cccc32)S/C1=N\c1ccc(S(N)(=O)=O)cc1 [EMAC10020m] | – | – | – | – | – | – | – | in the nanomolar range | in the nanomolar range |
| NS(=O)(=O)c1ccc(NN2C(=O)/C(=C3/C(=O)Nc4ccc([N+](=O)[O-])cc43)SC2=Nc2ccccc2)cc1 [5b, 4-((5-((Z)-5-nitro-2-oxoindolin-3-ylidene)-4-oxo-2-(phenylimino)thiazolidin-3-yl)amino)benzenesulfonamide] | 159 | 6030 | 7.5 | 34.6 | 338.5 to 340 | – | – | – | – |
| COc1ccc2c(c1)/C(=C1/SC(=Nc3ccccc3)N(Nc3ccc(S(N)(=O)=O)cc3)C1=O)C(=O)N2 [5e, 4-((5-((Z)-5-methoxy-2-oxoindolin-3-ylidene)-4-oxo-2-(phenylimino)thiazolidin-3-yl)amino)benzenesulfonamide] | 9.6 | 9060 | 53.7 | 5 | 328.8 to 330.1 | – | – | – | – |
| NS(=O)(=O)c1ccc(NN2C(=O)/C(=C3/C(=O)Nc4ccc(Br)cc43)SC2=Nc2ccccc2)cc1 [5d, 4-((5-((Z)-5-bromo-2-oxoindolin-3-ylidene)-4-oxo-2-(phenylimino)thiazolidin-3-yl)amino)benzenesulfonamide] | 104 | > 10000 | 193 | 87.4 | 331.4 to 332.7 | – | – | – | – |
| NS(=O)(=O)c1ccc(NN2C(=O)/C(=C3/C(=O)Nc4c(F)cccc43)SC2=Nc2ccccc2)cc1 [5h, 4-((5-((Z)-7-fluoro-2-oxoindolin-3-ylidene)-4-oxo-2-(phenylimino)thiazolidin-3-yl)amino)benzenesulfonamide] | 4.1 | 6620 | 1.3 | 12.7 | 336.1 to 336.6 | – | – | – | – |
